# Patent US11820994B2, “Methods of inducing apomictic or sexual reproduction” (priority 2018, dated 2023)
# What was measured:
# B. lignifera ovules = conditions: 50 and/or 100 mmol L−1 H2O2, 5 min pretreatment of pistils
# Excerpt: (§1) Ovules were scored based on germline development. The following conditions were quantified: i) pre-meiotic megaspore mother cell (MMC), ii) meiotic or diplosporous dyad, iii) sexual tetrad of megaspores, iv) enlarged functional megaspore (FM) with three degenerating megaspores (sexually derived), v) early-stage 1 or 2-nucleate embryo sac with three degenerating megaspore remnants visible, vi) enlarged functional megaspore (FM) with only one degenerating megaspore (derived by Taraxacum-type diplospory), vii) early-stage 1 or 2-nucleate embryo sac with only one degenerating megaspore remnant (derived by Taraxacum-type diplospory), viii) early-stage 1 or 2-nucleate embryo sac with no degenerating megaspores present (derived by Antennaria-type diplospory), ix) presence of one or more enlarged non-vacuolate nucellar cells (aposporous initial, AI) that equal or surpass the size of the meiocyte (meiotically active MMC, dyad or early-stage tetrad), x) enlarged nucellar cell with one or more distinct vacuoles and 1-2 nuclei (early-stage aposporous embryo sac, AES). Because of increased uncertainties, the origins of embryo sacs (sexual, diplosporous or aposporous) were not reported beyond the 2-nucleate stage. Pistil length and the developmental stage of the majority of scorable ovules in the pistil were recorded for each pistil.
# (§2) To study the effects of short-term drought on converting apomictic development to sexual development, pistils of apomictic B. retrofracta×stricta, B. cf. gunnisoniana and B. lignifera were excised and cultured at pre-apomeiotic stages of ovule development.
# (§3) TARGET OF RAPAMYCIN (TOR) is a major regulator of cell energetics that is highly-conserved among eukaryotes. This serine/threonine protein kinase activates or inactivates enzymes by its serine-threonine phosphorylation function(18). As a regulator of bioenergetics, TOR is inactivated by ROS, and its inactivation suppresses growth.
# [1] = system: B. retrofracta×stricta ovules; conditions: 50 and/or 100 mmol L−1 H2O2, 5 min pretreatment of pistils
# Excerpt: as §1, §2, §3
# [2] = system: B. cf. gunnisoniana ovules
# Excerpt: as §1, §2, §3
# Arabidopsis ovules = assay: Pistil culture experiments with 5-azaC, BR (epiBL), DTBA, H2O2 and sugars, meiosis to apomeiosis; type: cell-based, Arabidopsis thaliana
# Excerpt: (§4) To address redox instability, pistils were exposed to the antioxidant DTBA, an antioxidant that protects thiol groups in proteins from oxidization. To address bioenergetic stress, pistils were exposed to sugars. Glucose signaling is one of the most ancient and central signaling pathways in animals and plants and is involved in gene expression, primary and secondary metabolism, and regulation of growth and development (98). In Arabidopsis, rates of glycolysis and mitochondrial bioenergetics are sensed by TOR, which then control root meristem activation (18). If sufficient sugar is supplied, TOR should be activated. Active TOR protects BZR1 and other important BR-regulated enzymes from degradation, and this leads to plant growth (25). Factorial experiments were designed to test the effects of sucrose, glucose, epiBL, DTBA and 5-azaC on apomixis induction. These were designed for each of three sexual species, B. stricta, arabidopsis and cowpea. The experiments were performed and ratios of apomeiosis to meiosis were documented.
# Two factorial experiments were conducted using immature arabidopsis pistils. In the first experiment, no 5-azaC, 5-azaC in the pretreatment only, or 5-azaC in both the pretreatment and the tissue culture medium were tested.
# Cytological Analyses. Arabidopsis, Drummond's rockcress and cowpea floral buds were fixed in FAA (v/v: 3.7% formaldehyde, 5% acetic acid, 50% ethanol) for 48 h and cleared in 2:1 benzyl benzoate dibutyl phthalate (BBDP) (80): 1) 70% EtOH, 30 min; 95% EtOH, ≥4 h (2×); 95% EtOH:BBDP (2:1), 2 h; 95% EtOH:BBDP (1:2), 4 h; BBDP, 4 h; BBDP, overnight. Cleared pistils were mounted (up to 16 per slide) and measured from the pedicel base to the top of the stigma. Ovule development stages were studied using a BX53 microscope equipped with differential interference contrast optics and a MicroFire 599809 camera (Olympus, Center Valley, Pa., USA). For chromosome staining, pistils were soaked in 95% ethanol that contained 0.1 mg L^−1 4′,6-diamidino-2-phenylindole (DAPI). Callose was stained by soaking DAPI stained pistils in aqueous aniline blue (Millipore Sigma, Darmstadt, Germany) (124). DAPI fluorescence was detected with a Zeiss LSM 510 confocal microscope with excitation at 408 nm, dichroic reflector at HFT488 nm and detection at 450-650 nm. Callose was distinguished from DAPI by detection at 550-650 nm.
# Presence of the following ovule characteristics were recorded: MMCs, Antennaria type diplosporous 1-2 nucleate ES, sexual or Taraxacum type diplosporous dyads, sexual tetrads, sexual or Taraxacum type diplosporous 1-2 nucleate ES, AI and AES. Developmental stages for the majority of ovules per pistil were recorded, and pistil lengths for the following stages (125) were recorded: 1-II, ovule meristems protruding from placentae (precedes MMC formation); 2-IV, meiosis; 3-III, vacuole in immature ES beginning to appear; 4-VI, nuclear divisions in endosperm underway. To determine average timing of meiosis onset, pistils primarily containing premeiotic (2-III) ovules were located under low light conditions 1 h before the lights came on in the morning. Corresponding sepals were marked with a small point permanent marker. Pistils were then randomly harvested for analysis when the lights came on and 3 h thereafter.
# Pistils were aseptically excised, but not disinfested, at the early pre-MMC to MMC stages and incubated in vitro. The basal culture medium for arabidopsis and Drummond's rockcress was MS (126) (Caisson Laboratories, Inc., Smithfield, UT USA) with 20 g L^−1 sucrose or glucose and solidified with 1.45 g L^−1 Phytogel (MilliporeSigma).
# [3] = system: B. cf. gunnisoniana ovules; assay: Pistil culture with BR biosynthesis inhibitor BRZ, H2O2, or both; type: cell-based; conditions: for shift from apomeiosis (dyad formation) to meiosis (tetrad formation) vs controls: BRZ alone (1.0 μmol), H2O2 alone (500 μmol), or combined
# Protocol: Pistils were cultured at the 2-IV stage.
# Pistils were cultured at the […].
# By a mechanism not yet elucidated (25), TOR stimulates the production of brassinosteroids (BR), which are plant steroids that regulate growth, including many growth and development functions of ovules (25). By dephosphorylation, BR activates BRASSINAZOLE-RESISTANT 1 (BZR1), which is a major BR-regulated transcription factor that targets ca. 2000 genes. Thus, to determine if BR functions downstream of TOR in the apomeiosis meiosis switch, we treated sets of B. cf. gunnisoniana pistils with the BR biosynthesis inhibitor brassinozole (BRZ). Pistils were collected during the 2-III and 2-IV stages.
# To determine if apomixis to sex switching by H2O2 involves pathways independent of BR, we compared three treatments to controls, BRZ alone (1.0 μmol), H2O2 alone (500 μmol), and BRZ and H2O2 combined (FIG. 37).
# [4] = system: apomictic Boechera pistils; conditions: H2O2 applications shortly before apomeiosis; cited from earlier work
# [5] = system: cowpea (Vigna unguiculata) ovules; assay: Pistil culture with epiBL, DTBA, epiBL plus DTBA and 5-azaC; type: cell-based; conditions: compound in pretreatment and culture medium; 24 of 34 ovules in total
# Excerpt: as §4, with “These were designed for each of three sexual species, B. stricta, arabidopsis and cowpea. The experiments were performed and ratios of apomeiosis to meiosis were documented.” left out
# Cytological Analyses. […] Cleared pistils were mounted (up to 16 per slide) and measured from the pedicel base to the top of the stigma. […] DAPI fluorescence was detected with a Zeiss LSM 510 confocal microscope with excitation at 408 nm, dichroic reflector at HFT488 nm and detection at 450-650 nm. […]
# Presence of the following ovule characteristics were recorded: MMCs, Antennaria type diplosporous 1-2 nucleate ES, sexual or Taraxacum type diplosporous dyads, sexual tetrads, sexual or Taraxacum type diplosporous 1-2 nucleate ES, AI and AES. […]
# [6] = system: B. stricta (Drummond's rockcress) ovules; assay: Pistil culture factorial experiment with sucrose, glucose, epiBL, DTBA and 5-azaC; type: cell-based, Boechera stricta
# Excerpt: as §4
# Both the carbohydrate variable and the other components variable were highly significant (P<0.001). Additionally, three ovules from the sucrose plus epiBL treatment (epiBL in the pretreatment and in the medium) had formed aposporous embryo sacs (AES). Also, two ovules, one from the sucrose-epiBL-epiBL treatment and one from the glucose-DTBA-DTBA treatment, had formed Antennaria-type diplosporous embryo sacs (FIGS. 48A-48H).
# Cytological Analyses. Arabidopsis, Drummond's rockcress and cowpea floral buds were fixed in FAA (v/v: 3.7% formaldehyde, 5% acetic acid, 50% ethanol) for 48 h and cleared in 2:1 benzyl benzoate dibutyl phthalate (BBDP) (80): 1) 70% EtOH, 30 min; 95% EtOH, ≥4 h (2×); 95% EtOH:BBDP (2:1), 2 h; 95% EtOH:BBDP (1:2), 4 h; BBDP, 4 h; BBDP, overnight. Cleared pistils were mounted (up to 16 per slide) and measured from the pedicel base to the top of the stigma. […] DAPI fluorescence was detected with a Zeiss LSM 510 confocal microscope with excitation at 408 nm, dichroic reflector at HFT488 nm and detection at 450-650 nm. […]
# Presence of the following ovule characteristics were recorded: MMCs, Antennaria type diplosporous 1-2 nucleate ES, sexual or Taraxacum type diplosporous dyads, sexual tetrads, sexual or Taraxacum type diplosporous 1-2 nucleate ES, AI and AES. Developmental stages for the majority of ovules per pistil were recorded, and pistil lengths for the following stages (125) were recorded: 1-II, ovule meristems protruding from placentae (precedes MMC formation); 2-IV, meiosis; 3-III, vacuole in immature ES beginning to appear; 4-VI, nuclear divisions in endosperm underway. […]
# Arabidopsis embryo sacs = assay: Induction of parthenogenesis and autonomous endosperm formation in pistils; type: cell-based; conditions: 0.1 μM DTBA on 2% glucose medium for 7 d
# Protocol: Scale bars: 50 μm (FIG. 51A), 20 μm (FIGS. 51B-51E).
# FIG. 52 Parthenogenesis in putatively diploid Arabidopsis embryo sacs induced by treatment of pistils in emasculated flowers with 2 μM BR or 50 mM glucose. To prevent fertilization, stigmas of pistils were clipped while anthers were immature. These pistils were also treated premeiotically with BR and glucose.
# Functional apomixis requires not only apomeiosis but also parthenogenesis and, in plants, endosperm formation.
# [7] = system: B. cf. gunnisoniana ovules; conditions: pre-MMC staged pistils demethylated with 5-azaC; cited from earlier work
# [8] = system: B. cf. gunnisoniana ovules; assay: 5-azaC pre-culture soak and pistil culture, Taraxacum-type to Antennaria-type diplospory; type: cell-based; conditions: 500 μmol L−1 5-azaC (highest concentration)
# Protocol: FIG. 38 Frequencies of triploid B. cf. gunnisoniana ovules that were initiating Taraxacum-type diplospory, Polygonum-type sexual development, Antennaria-type diplospory, or Hieracium-type apospory at the end of pistil culture treatment as affected by a 5 min pre-culture soak in solutions containing 5-azacytidine (5-azaC). Pistils were initiated in culture at the 1-I stage. Numbers of ovules per level of 5-azaC averaged 487 and ranged from 288-590.
# FIGS. 39A-39C Ovules from pistils of B. gunnisoniana treated at the pre-MMC stage with 5-azaC as a pretreatment solution and then cultured on 5-azaC-containing tissue culture media for 48 h. (FIGS. 39A, 39B) Antennaria-type (A-type) MMC vacuolation. (FIG. 39C) 2-nucleate A-type embryo sac arising directly from an MMC. scale bar: 20 μm.
# Thus, if methylation in sexual plants can be prevented, or if DNA can be demethylated, the apomictic pathway might surface as the default pathway. 5-azaC, an inhibitor of DNA-cytosine methyltransferases, produces upon DNA replication hypomethylated DNA. It is a chemical analogue of cytosine that is incorporated into DNA by competition with cytosine during DNA synthesis. In 5-azaC, the carbon-5 of the cytosine ring, which is essential to DNA methyltransferase function, is replaced by nitrogen, and this causes failure of methylation at each 5-azaC site(99). […]
# [9] = 7 min pretreatment in dilute H2O2
# [10] = early MMC staged pistils soaked in DTBA 60 min, cultured on DTBA medium 4 d
compound,measurement,setting,value
"OO [H2O2, hydrogen peroxide]",switch from apomeiosis to meiosis,B. lignifera ovules,effectively switched apomeiosis to meiosis
same,switch from apomeiosis to meiosis,[1],effectively switched apomeiosis to meiosis
same,switch from apomeiosis to meiosis,"[2]; 50 and/or 100 mmol L−1 H2O2, 5 min pretreatment of pistils",effectively switched apomeiosis to meiosis
same,"replacement of surviving megaspores of tetrads by aposporous embryo sacs (apospory), ovules",[2]; H2O2 treatments,30%
same,Taraxacum-type diplosporous ES formation,Arabidopsis ovules; [9],absent
same,ovules with surviving megaspores replaced by AES,Arabidopsis ovules; [9],13%
same,shift from apomeiosis (dyad formation) to meiosis (tetrad formation) vs controls,[3],highly significant (p<0.001) shift from apomeiosis (dyad formation) to meiosis (tetrad formation)
same,shift from apomeiosis to meiosis,[4],high frequency shifts from Taraxacum-type diplosporous apomeiosis to normal meiosis
"Cl.N[C@H](CS)CCS [DTBA, (S)-2-aminobutane-1,4-dithiol hydrochloride]",number of ovules that initiated Antennaria-type diplospory,[5],8 ovules
same,number of ovules that formed Antennaria-type diplosporous embryo sacs,[6]; glucose-DTBA-DTBA treatment,one
same,ovules with 1st division meiotic restitution (Taraxacum-type diplosporous apomeiosis),Arabidopsis ovules; [10],40%
same,ovules with megaspores displaced by one or more AES,Arabidopsis ovules; [10],18%
same,parthenogenetic embryo formation,Arabidopsis embryo sacs,Parthenogenetic embryos
"CC(O)(c1ccccc1)C(Cc1ccc(Cl)cc1)n1cncn1 (stereo not shown) [BRZ, brassinazole]",shift from apomeiosis (dyad formation) to meiosis (tetrad formation) vs controls,[3],highly significant (p<0.001) shift from apomeiosis (dyad formation) to meiosis (tetrad formation)
same,shift of reproductive mode by BR synthesis inhibition,[3]; pistils cultured at the 2-IV stage,significant shift (P<0.05) from apomeiosis to meiosis and from apoptosis to apospory
OC[C@H]1O[C@@](CO)(O[C@H]2O[C@H](CO)[C@@H](O)[C@H](O)[C@H]2O)[C@@H](O)[C@@H]1O [sucrose],meiosis termination followed by Taraxacum and Hieracium type ES formation,[6]; glucose instead of sucrose in medium,26 of 164
"Nc1ncn([C@@H]2O[C@H](CO)[C@@H](O)[C@H]2O)c(=O)n1 [5-azaC, 5-azacytidine]",ovules switched from Taraxacum-type to Antennaria-type diplospory,[7],10%
same,number of ovules that initiated Antennaria-type diplospory,[5],Nine
same,ovules with induced Antennaria-type diplospory,[8],10%
same,Antennaria type diplospory,"Arabidopsis ovules; 5-azaC soak, then 5-azaC or BR medium (5/5, 5/B)",occurred in some ovules
same,ovules with meiosis replaced by Antennaria-type diplosporous embryo sac formation,"Arabidopsis ovules; first factorial experiment, 5-azaC in pretreatment and tissue culture media",6%
same,onset of aposporous embryo sac formation,"Arabidopsis ovules; first factorial experiment, 5-azaC in pretreatment only or pretreatment and medium",effectively induced onset of aposporous embryo sac formation from nucellar cells
same,treated ovules that developed apomeiotically,"Arabidopsis ovules; pre-MMC pistils soaked in 5-azaC 60 min, cultured on control medium or media with 5-azaC, BR, or 5-azaC plus BR and DTBA",Greater than 90%
same,ovules with Antennaria-type diplospory,"Arabidopsis ovules; second factorial experiment, 5-azaC as pretreatment and in culture medium",26%
same,"ovules that initiated apomixis (AES, Taraxacum-type and Antennaria-type diplospory)","Arabidopsis ovules; second factorial experiment, 5-azaC-treated",90%
